Measurements taken from US12667824B2, “Carbon dioxide absorbent” (MITSUBISHI GAS CHEMICAL COMPANY, INC., priority 2020, dated 2026).
Where two headings read alike, the source gives them in different places.

Assays:
[1] = Maximum endothermic temperature of amine compound (DSC, volatilization); type: physicochemical; conditions: DSC 23 to 350° C., 10° C./min, nitrogen; volatilization of the amine compound
Protocol: DSC measurements were performed on the amine compounds used in Examples and Comparative Examples to measure the maximum endothermic temperature of the amine compounds as follows. First, a differential scanning calorimetry was performed on the amine compounds using a differential thermogravimetric analyzer (Product Name: DTG-60 produced by Shimadzu Corporation) under conditions of 23 to 350° C. of a measurement temperature range, 10° C./min of a heating rate, and a nitrogen atmosphere. From the DSC curve obtained thereby, the temperature at which the endothermic amount associated with the volatilization of the amine compound reached the maximum was calculated, and the temperature thereof was used as the maximum endothermic temperature of the amine compound.

[2] = Maximum carbon dioxide (CO2) release temperature of amine compound (DSC); type: physicochemical; conditions: amine compound with CO2 absorbed, DSC 23 to 250° C., 10° C./min, nitrogen
Protocol: (Maximum Carbon Dioxide (CO2) Release Temperature of Amine Compound)
After the above evaluation of the carbon dioxide absorption capacity was completed, the amine compound was removed from the desiccator to obtain the amine compound with carbon dioxide absorbed. The DSC measurement was performed on the amine compound with carbon dioxide absorbed as follows, to measure the maximum carbon dioxide release temperature of the amine compound. […] From the DSC curve obtained thereby, the temperature at which the endothermic amount associated with the desorption of carbon dioxide reached the maximum was calculated, and the temperature thereof was used as the maximum carbon dioxide release temperature of the amine compound.

[3] = Amine value of amine compound (JIS K7237-1995 titration); type: physicochemical; conditions: 0.1 N perchloric acid-acetic acid titration
Protocol: The amine value was measured by the following measurement method in accordance with JIS K7237-1995. • (1) Dissolving 0.1 g of the amine compound in 20 mL of the acetic acid. • (2) Calculating the amine value by titrating the solution obtained in the above (1) with the 0.1 N perchloric acid-acetic acid solution using the automatic potentiometric titrator (AT-610 produced by Kyoto Electronics Manufacturing Co., Ltd.).

[4] = Cycle evaluation (absorption, regeneration at 100° C. for 1 hour); conditions: before and after heating at 100° C. for 1 hour; for Weight Retention 1st Time: 1st regeneration; for Weight Retention 2nd Time: 2nd regeneration
Protocol: After the above evaluation of the carbon dioxide absorption capacity was completed, the amine compound was removed from the desiccator, and the amine compound with carbon dioxide absorbed was heated at 100° C. for 1 hour to release the carbon dioxide absorbed and regenerate the amine compound. At this time, weights of the amine compound before and after the heat treatment were measured, and a weight retention (1st time) was calculated.
Then, on the regenerated amine compound, the above evaluation of the carbon dioxide absorption capacity was performed again, and changes of the carbon dioxide concentration in the desiccator were measured after 2 hours and 24 hours (2nd time).
Then, the amine compound was removed from the desiccator, and the amine compound with carbon dioxide absorbed was heated at 100° C. for 1 hour to release carbon dioxide absorbed and regenerate the amine compound again. At this time, the weights of the amine compound before and after the heat treatment were measured, and the weight retention (2nd time) was calculated.
Next, on the regenerated amine compound, the above evaluation of the carbon dioxide absorption capacity was evaluated again, and changes of the carbon dioxide concentration in the desiccator were measured after 2 hours and 24 hours (3rd time).

[5] = Acid dissociation constant (pKa) of amine compound by acid-base titration; type: physicochemical; conditions: in purified water, 25±2° C.
Protocol: The acid dissociation constant of the amine compound was determined by the following method. • (1) Dissolving 0.2 g of the amine compound in 30 mL of the purified water. • (2) Calculating the acid dissociation constant (pKa) by titrating the solution obtained in the above (1) with the 0.1 N perchloric acid-acetic acid solution using the automatic potentiometric titrator (AT-610 produced by Kyoto Electronics Manufacturing Co., Ltd.).
Still, let the temperature at the time of measurement be 25±2° C.

Maximum Endothermic Temperature [1] [°C]	Maximum CO2 Release Temperature [2] [°C]	Amine Value [3] [mgKOH/g]	Weight Retention 1st Time [4] [%]	Weight Retention 2nd Time [4] [%]	pKa ([5]; purified water, read-out: pKa)	pKa [5]	SMILES
246.7	97.8	844	100	100	–	–	NCCCNCC1CCCC(CNCCCN)C1 (stereo not shown) [Example 5]
–	–	–	–	–	10.9	–	N#CCCNCC1CCCC(CN)C1 (stereo not shown) [Example 4]
184.1	69.5	1535	98	95	–	–	NCCNCCNCCN [Comparative Example 2, Triethylenetetramine, reference compound]
155.9	130	789	–	–	–	11.3	NCC1CCC(CN)CC1 (single isomer, unassigned) [Example 3, 1,4-bis(aminomethyl)cyclohexane]
155.6	135.2	789	–	–	10.9	–	NCC1CCC(CN)CC1 (single isomer, unassigned) [Example 2, 1,4-bis(aminomethyl)cyclohexane]
